Columns and labels:
[1] = target: T1, coconut LPAAT (Cocos nucifera, UniProt Q42670); assay: LPAAT activity assay, coconut P2 membrane preparation; format: biochemical; set-up: white endosperm tissue lining the inside of the endocarp can be dissected and collected; from tissue; host or cells: immature coconut endosperm, P2 membrane fraction; settings: for effect on medium-chain LPAAT activity: coconut P2
T1 sequence (Q42670 1-308): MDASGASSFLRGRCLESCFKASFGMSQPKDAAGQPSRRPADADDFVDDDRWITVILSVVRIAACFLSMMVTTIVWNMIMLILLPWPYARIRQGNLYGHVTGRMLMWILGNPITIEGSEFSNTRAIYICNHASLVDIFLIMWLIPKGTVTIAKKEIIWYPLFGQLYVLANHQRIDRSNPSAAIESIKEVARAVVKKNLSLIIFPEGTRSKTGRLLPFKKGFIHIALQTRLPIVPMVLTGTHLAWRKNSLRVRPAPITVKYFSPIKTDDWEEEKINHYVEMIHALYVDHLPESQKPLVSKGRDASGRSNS
Procedure: (§1) To assay for LPAAT activity, the sample is incubated with lysophosphatidic acid (LPA) and acyl-coenzyme A (acyl-CoA) substrates in buffered solution. The acyl substituents of the two substrates are chosen to correspond with the specificity of the enzyme being measured. For example, to measure activity of an LPAAT having preference for medium-chain substrates, lauroyl-LPA (lauroyl-lysophosphatidic acid) and lauroyl-CoA may be used, to measure activity of an LPAAT preferring longer-chain acyl groups, oleoyl-LPA and oleoyl-CoA may be used, to measure activity of an LPAAT preferring very-long chain substrate, erucyl-LPA and erucyl-CoA may be used, and so on, depending upon the type of LPAAT to be tested. The acyl group of one substrate is radioactively labeled in order to detect the product formed. In the examples which follow the acyl substituent of the acyl-CoA substrate is radiolabeled with ^14 C in the carboxyl group. LPAAT activity results in transfer of this acyl group from the acyl-CoA "donor" substrate to the LPA "acceptor" substrate, converting the latter into the product, phosphatidic acid (PA). LPAAT activity is measured as the amount of radioactive product formed in a given assay time. The PA product is radioactive as a result of the transferred radiolabeled acyl group at the central carbon atom of the molecule, and the quantity of PA formed may be determined by measuring radioactivity of the PA fraction. For this measurement, the PA is first separated from the acyl-CoA substrate by solvent partitioning, or by thin-layer chromatography (TLC).
(§2) 20 μl of the sample to be assayed for LPAAT activity is mixed with 217.5 μl of an assay ingredient mixture in a 4-ml, screw-cap vial. […] The incubation takes place in a water bath at 30° C., for 20-30 minutes.
(§3) To stop the assay, 0.25 ml of 1M KCl in 0.2M H3 PO4 is added to the vial. At this point, 40 μl BSA (bovine serum albumin, fraction V) at 1 mg/ml are added, followed by 0.75 ml of a solution of 67 μg/ml unlabeled PA (acting as a "carrier" to facilitate partitioning) in chloroform/methanol (2:1, v/v). The chain lengths of the PA acyl groups are chosen to correspond to those used in the assay substrates. Upon thorough mixing of these components the radiolabeled PA product of the LPAAT reaction partitions into the organic phase and away from the unreacted acyl-CoA and LPA. The vial is centrifuged briefly at low speed to facilitate the separation of organic (lower) and aqueous (upper) phases. The aqueous phase is then removed and discarded. The total radioactivity extracted into the organic phase is determined by liquid scintillation counting; a 100 μl sample of the organic phase is transferred to a 20 ml scintillation vial and allowed to dry, and scintillation fluid (3-5 ml) is added to the vial. The radioactivity of the sample, after subtraction of the "minus-enzyme" or "minus-LPA" radioactivities, is taken as an approximate indication of the amount of PA formed in the LPAAT-catalyzed reaction and therefore of LPAAT activity.
A more accurate estimation of the LPAAT activity may be obtained by separating the PA product from these contaminants by TLC. The remaining organic phase is applied to a silica TLC plate. Ascending chromatography is carried out for 50 minutes, using the solvent mixture chloroform/pyridine/88% formic acid (50:30:7, v/v). After the plate has dried, the distribution of radioactivity is visualized and quantitated using an AMBIS radioanalytic imaging system (AMBIS Systems Inc., San Diego, Calif.). From prior application of standard lipid components the Rf of the PA is known. The radioactivity associated with the PA spot is expressed as a percentage of the total radioactivity of the assay sample loaded on the plate. This ratio provides an indication of the proportion of the scintillation counts which represent the PA product, and may be used to correct the counts to obtain the total PA radioactivity formed in the assay. […]

[2] = tested on: bay LPAAT; assay: LPAAT activity assay, California bay P2 membrane preparation; format: biochemical, Umbellularia californica; settings: for detergent concentration tolerated without complete loss of activity: 1-hour exposure, diluted prior to assay; for detergent concentration in the assay that inhibits long-chain LPAAT activity completely: 18:1-CoA and 18:1-LPA, concentrations w/v
Procedure: To assay for LPAAT activity, the sample is incubated with lysophosphatidic acid (LPA) and acyl-coenzyme A (acyl-CoA) substrates in buffered solution. The acyl substituents of the two substrates are chosen to correspond with the specificity of the enzyme being measured. […] The acyl group of one substrate is radioactively labeled in order to detect the product formed. In the examples which follow the acyl substituent of the acyl-CoA substrate is radiolabeled with ^14 C in the carboxyl group. LPAAT activity results in transfer of this acyl group from the acyl-CoA "donor" substrate to the LPA "acceptor" substrate, converting the latter into the product, phosphatidic acid (PA). LPAAT activity is measured as the amount of radioactive product formed in a given assay time. The PA product is radioactive as a result of the transferred radiolabeled acyl group at the central carbon atom of the molecule, and the quantity of PA formed may be determined by measuring radioactivity of the PA fraction. For this measurement, the PA is first separated from the acyl-CoA substrate by solvent partitioning, or by thin-layer chromatography (TLC).

[3] = target: T2, coconut medium-chain LPAAT (Cocos nucifera, UniProt Q42670); assay: Assay of solubilized coconut LPAAT (S3 preparation) with phospholipid activation; format: biochemical; settings: for effect on LPAAT activity of the coconut S3 preparation: added at 1 mM; for reduction of LPAAT activity of the coconut S3 preparation: added at 10 mM
T2 construct: The frozen coconut P2 preparation is thawed and diluted in a volume of P2 Buffer; from tissue; host or cells: immature coconut endosperm, solubilized S3 supernatant of P2 membranes
T2 sequence (Q42670 1-308): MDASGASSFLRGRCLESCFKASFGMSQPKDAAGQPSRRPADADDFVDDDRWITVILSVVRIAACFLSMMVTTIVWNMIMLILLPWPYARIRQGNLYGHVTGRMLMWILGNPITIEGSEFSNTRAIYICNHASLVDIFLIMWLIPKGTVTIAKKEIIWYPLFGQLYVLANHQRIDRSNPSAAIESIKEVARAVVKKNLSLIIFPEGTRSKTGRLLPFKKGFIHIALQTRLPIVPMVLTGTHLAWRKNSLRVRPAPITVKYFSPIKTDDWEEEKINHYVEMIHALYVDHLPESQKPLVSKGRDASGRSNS
Procedure: After solubilization of LPAAT protein from plant membranes as described below, modification of the above assay conditions is required in order to detect maximum LPAAT activity. This is especially important after the solubilized LPAAT has been chromatographed on at least one column. The important modification to the assay is the addition, at the start of the assay procedure, of 1 μl of a concentrated phospholipid (PL) solution to 20 μl of the LPAAT-containing sample in a glass vial. The high concentrations of CHAPS (at least 1% w/v) and NaCl (typically 0.5M or greater) in the solubilized LPAAT preparation aid in dispersal of the phospholipids. The phospholipid solution is obtained by sonicating crude soybean phospholipids (L-phosphatidylcholine from soybean, "Type IVs" obtained from Sigma Chemical Company, St. Louis) at 50 mg/ml in 0.5% (w/v) CHAPS (3-[(3-cholamidopropyl) -dimethylammonio]-1-propane-sulfonate) until a uniform suspension is obtained.
The remaining assay ingredients (as described above), with the exception of the acyl-CoA substrate, are then added as 219 μl of a mixture. […] Radiolabeled acyl-CoA (10 μl, or an appropriately adjusted volume as indicated above) is added to start the LPAAT-catalyzed reaction and the rest of the assay procedure is completed as described above.
All steps are carried out at 0-4° C. The frozen coconut P2 preparation is thawed and diluted in a volume of P2 Buffer to achieve a protein concentration of 0.94 mg/ml P2 protein. Protein concentration is determined by Coomassie dye staining relative to a bovine serum albumin standard. The P2 membrane suspension is then diluted with an equal volume of Solubilization Buffer (50 mM HEPES-NaOH, pH 7.5, […], 20% (w/v) glycerol, 4.5% (w/v) CHAPS, 100 μM Pefabloc, 1 μM leupeptin, 1 μM Pepstatin A, and 5 mM β-ME), resulting in final concentrations of 1M NaCl, 2.25% (w/v) detergent, and 0.47 mg/ml protein. These component concentrations, and the resulting detergent/protein ratio of 48/1 (w/w), are important for optimal solubilization. The preparation is then incubated on ice for 30 minutes with occasional, gentle stirring, followed by centrifugation at 252,000×g for 2 hours. The resulting supernatant fraction (S3) is filtered through buffer-wetted Miracloth, and may then be stored frozen (-70) with only slight loss of activity. Optimally, it is applied to chromatography columns without an intervening freeze-thaw cycle.
Assay of the coconut medium-chain LPAAT activity after solubilization (S3 preparation) and reactivation with PLs, using different acyl-CoA substrates, provides the following results (Table 3). In all these assays the acceptor substrate is 12:0-LPA.

[4] = tested on: Rapeseed LPAAT; assay: LPAAT activity assay, rapeseed P2 membrane preparation; format: biochemical, Brassica napus; settings: acyl-CoA donor varied, acceptor 12:0-LPA
Procedure: as §1, §2, §3
A more accurate estimation of the LPAAT activity may be obtained by separating the PA product from these contaminants by TLC. The remaining organic phase is applied to a silica TLC plate. […] After the plate has dried, the distribution of radioactivity is visualized and quantitated using an AMBIS radioanalytic imaging system (AMBIS Systems Inc., San Diego, Calif.). From prior application of standard lipid components the Rf of the PA is known. The radioactivity associated with the PA spot is expressed as a percentage of the total radioactivity of the assay sample loaded on the plate. This ratio provides an indication of the proportion of the scintillation counts which represent the PA product, and may be used to correct the counts to obtain the total PA radioactivity formed in the assay.
A P2 membrane homogenate from immature embryos of developing rapeseed (Brassica napus) seeds is prepared essentially as described above, except as noted below.

[5] = P2 membrane preparation, acyl-CoA donor varied, acceptor 12:0-LPA

With Nc1ncnc2c1ncn2[C@@H]1O[C@H](COP(=O)(O)OP(=O)(O)OP(=O)(O)O)[C@@H](O)[C@H]1O [adenosine-5'-triphosphate] the “effect on medium-chain LPAAT activity” value ([1]; 2 mM in the assay system) was “unaffected”.

Tween 20 was tested, and the “detergent concentration tolerated without complete loss of activity” value ([2]; bay P2 preparation) was 2.5% and the “detergent concentration in the assay that inhibits long-chain LPAAT activity completely” value ([2]; bay P2 preparation) was 1%.

In the case of CCCCCCCCCCCCCC[N+](C)(C)CCCS(=O)(=O)[O-] [Zwittergent 3-14], the “detergent concentration in the assay that inhibits long-chain LPAAT activity completely” value ([2]; bay P2 preparation) is reported as 0.005%.

For CCCCCCCCO[C@@H]1O[C@H](CO)[C@@H](O)[C@H](O)[C@H]1O [octyl glucoside], the “detergent concentration tolerated without complete loss of activity” value ([2]; bay P2 preparation) was 0.5% and the “detergent concentration in the assay that inhibits long-chain LPAAT activity completely” value ([2]; bay P2 preparation) was 0.1%.

In the case of [Mn+2] [Mn^2+], the “effect on LPAAT activity of the coconut S3 preparation” value (from here on “effect on LPAAT activity”) [3] is reported as “without significant effect” and the “reduction of LPAAT activity of the coconut S3 preparation” value (“reduction” for short) [3] is reported as at least 50%.

With lysophosphatidylcholine the “effect on medium-chain LPAAT activity” value ([1]; 60 μM in the assay system) was “unaffected”.

In the case of Triton X100, the “detergent concentration tolerated without complete loss of activity” value ([2]; bay P2 preparation) is reported as 0.1% and the “detergent concentration in the assay that inhibits long-chain LPAAT activity completely” value ([2]; bay P2 preparation) is reported as 0.03%.

With CCCCCC(=O)SCCNC(=O)CCNC(=O)[C@H](O)C(C)(C)COP(=O)(O)OP(=O)(O)OC[C@H]1O[C@@H](n2cnc3c(N)ncnc32)[C@H](O)[C@@H]1OP(=O)(O)O [6:0] the “LPAAT Activity from Bay” value [2, 5] was 1 pmol PA formed/30 min assay, the “LPAAT Activity from Rapeseed” value [4] was 0 pmol PA formed/30 min assay and the “LPAAT Activity, solubilized coconut LPAAT” value ([3]; radioactivity of PA product resolved on TLC, after 30 min assay, S3 reactivated with PLs, acceptor 12:0-LPA) was 1 cpm. The “LPAAT Activity from Coconut” value [1, 5] was 3 pmol PA formed/30 min assay.

For [Mg+2] [Mg^2+], the “effect on LPAAT activity” value [3] was “without significant effect” and the “reduction” value [3] was at least 50%.

For C[C@H](CCC(=O)O)[C@H]1CC[C@H]2[C@@H]3CC[C@@H]4C[C@H](O)CC[C@]4(C)[C@H]3C[C@H](O)[C@]12C [sodium deoxycholate], the “detergent concentration in the assay that inhibits long-chain LPAAT activity completely” value ([2]; bay P2 preparation) was 0.1%.

CC(C)(COP(=O)(O)OP(=O)(O)OC[C@H]1O[C@@H](n2cnc3c(N)ncnc32)[C@H](O)[C@@H]1OP(=O)(O)O)[C@@H](O)C(=O)NCCC(=O)NCCS [CoA] was tested, and the “effect on medium-chain LPAAT activity” value ([1]; 0.1 mM in the assay system) was “unaffected”.

With [Ca+2] [Ca^2+] the “effect on LPAAT activity” value [3] was “without significant effect” and the “reduction” value [3] was at least 50%.

In the case of CCCCCCCCCCCCOS(=O)(=O)[O-].[Na+] [SDS, sodium dodecyl sulfate], the “detergent concentration in the assay that inhibits long-chain LPAAT activity completely” value ([2]; bay P2 preparation) is reported as 0.002%.

In the case of C[C@H](CCC(=O)NCCC[N+](C)(C)CCCS(=O)(=O)[O-])[C@H]1CC[C@H]2[C@@H]3[C@H](O)C[C@@H]4C[C@H](O)CC[C@]4(C)[C@H]3C[C@H](O)[C@]12C [CHAPS, 3-[(3-cholamidopropyl) -dimethylammonio]-1-propane-sulfonate], the “concentration above which inhibitory in the medium-chain LPAAT assay” value ([1]; coconut medium-chain LPAAT assay) is reported as “above 0.1 % (w/v)” and the inhibition at 5000 µg/mL ([1]; read-out: LPAAT activity loss) is reported as 50%.

B1: 18:1-ACP: 18:1 acyl-ACP tested as LPAAT donor substrate (conjugate, UniProt P0A6A8 2-78, looked up)
Acyl carrier protein: STIEERVKKIIGEQLGVKQEEVTNNASFVEDLGADSLDTVELVMALEEEFDTEIPDEEAEKITTVQAAIDYINGHQA
modifications: 18:1 acyl thioester
notes: 18:1 acyl-ACP tested as LPAAT donor substrate
In the case of B1, the “utilization as LPAAT donor substrate instead of 18:1-CoA” value ([2]; bay P2 preparation) is reported as “will not significantly utilize”.
